Consider 26 molecules from ChEMBL document CHEMBL1133406, “Potent antagonists of gonadotropin releasing hormone receptors derived from quinolone-6-carboxamides” (Bioorg Med Chem Lett, 2000).

Molecules are shown by their SMILES.

Test [1] deals with T1, Gonadotropin-releasing hormone receptor (Rattus norvegicus, UniProt P30969).
T1 sequence (P30969 whole entry): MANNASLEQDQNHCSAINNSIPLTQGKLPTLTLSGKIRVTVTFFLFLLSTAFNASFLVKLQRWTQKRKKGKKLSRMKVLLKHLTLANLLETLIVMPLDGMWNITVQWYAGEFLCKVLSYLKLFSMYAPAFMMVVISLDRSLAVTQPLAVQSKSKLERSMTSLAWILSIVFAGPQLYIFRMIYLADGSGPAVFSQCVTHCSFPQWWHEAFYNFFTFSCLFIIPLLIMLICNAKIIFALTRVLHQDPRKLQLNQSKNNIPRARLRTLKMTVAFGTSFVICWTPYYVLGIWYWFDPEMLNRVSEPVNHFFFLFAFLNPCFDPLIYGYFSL
Kind of test: In vitro inhibition of GnRH stimulated release of luteinizing hormone from the rat primary pituitary cells. The format is functional, cell-based, Pituitary gland cell.

Test [2] has as its target T2, Gonadotropin-releasing hormone receptor (Homo sapiens, UniProt P30968).
T2 sequence (P30968 whole entry): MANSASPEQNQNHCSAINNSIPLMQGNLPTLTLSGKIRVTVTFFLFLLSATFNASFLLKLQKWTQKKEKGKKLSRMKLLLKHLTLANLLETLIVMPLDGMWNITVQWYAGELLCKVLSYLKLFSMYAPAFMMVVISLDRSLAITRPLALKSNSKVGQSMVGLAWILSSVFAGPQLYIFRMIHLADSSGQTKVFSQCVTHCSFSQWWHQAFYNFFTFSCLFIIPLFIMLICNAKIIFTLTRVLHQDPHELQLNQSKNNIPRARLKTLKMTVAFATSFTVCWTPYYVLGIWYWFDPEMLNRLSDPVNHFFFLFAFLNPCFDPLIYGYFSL
Kind of test: In vitro inhibition of GnRH-stimulated phosphatidyl inositol hydrolysis in CHO cells stably expressing gonadotropin-releasing hormone receptor. The format is functional, cell-based.

Test [3] has as its target T2, Gonadotropin-releasing hormone receptor. Nature of the test: In vitro inhibitory activity against […] CHO cells stably expressing human gonadotropin-releasing hormone receptor. The format is cell-based.

`Cc1cc(C)cc(-c2c(O)nc3cc(Cl)c(C(=O)Nc4cccnc4)cc3c2OCCC2CCCCN2)c1` (stereo unspecified): the IC50 (as a rule, the concentration at which inhibition is half-maximal) in test [1] is greater than 1280 nM; in test [2], 130 nM; in test [3] it was 32 nM.
The corresponding values for `Cc1cc(C)cc(-c2c(O)nc3cc(Cl)c(C(=O)Nc4cc(C)ns4)cc3c2OCCC2CCCCN2)c1` (stereo unspecified) are 521 nM, 21.5 nM and 2.9 nM.
Regarding `Cc1cc(C)cc(-c2c(O)nc3cc(Cl)c(C(=O)Nc4ccccn4)cc3c2OCCC2CCCCN2)c1` (stereo unspecified), the IC50 in test [1] came to 1260 nM; in test [2], 19 nM; in test [3], 3.6 nM.
In test [1], `CCC(C)N(C(=O)c1cc2c(OCCC3CCCCN3)c(-c3cc(C)cc(C)c3)c(O)nc2cc1Cl)C(C)CC` (stereo unspecified) showed an IC50 greater than 1280 nM.
Turning to `Cc1cc(C)cc(-c2c(O)nc3cc(Cl)c(C(=O)Nc4cc(C)nc(C)n4)cc3c2OCCC2CCCCN2)c1` (stereo unspecified), the IC50 in test [2] was 486 nM; in test [3] it was 40 nM.
Turning to `Cc1cc(C)cc(-c2c(O)nc3cc(Cl)c(C(=O)Nc4cnccn4)cc3c2OCCC2CCCCN2)c1` (stereo unspecified), the IC50 turned out to be 2200 nM in test [1], 16 nM in test [2] and 7 nM in test [3].
As to `Cc1cc(C)cc(-c2c(O)nc3cc(Cl)c(C(=O)Nc4nncs4)cc3c2OCCC2CCCCN2)c1` (stereo unspecified), the results for the IC50 in test [2] and in test [3] were 22 nM and 32 nM, respectively.
On to `Cc1cc(C)cc(-c2c(O)nc3cc(Cl)c(C(=O)Nc4cc(Cl)ncn4)cc3c2OCCC2CCCCN2)c1` (stereo unspecified), for which the values for the IC50 in test [1], in test [2] and in test [3] were 79.2 nM, 14.5 nM and 1.4 nM, respectively.
As to `Cc1cc(C)cc(-c2c(O)nc3cc(Cl)c(C(=O)NCc4ccc5c(c4)OCO5)cc3c2OCCC2CCCCN2)c1` (stereo unspecified), the IC50 in test [1] is greater than 1280 nM; in test [2] it was 591 nM; in test [3] it was 110 nM.
Take `Cc1cc(C)cc(-c2c(O)nc3cc(Cl)c(C(=O)Nc4ncccn4)cc3c2OCCC2CCCCN2)c1` (stereo unspecified): the IC50 was greater than 1280 nM in test [1], greater than 3200 nM in test [2] and 290 nM in test [3].
As for `Cc1cc(C)cc(-c2c(O)nc3cc(Cl)c(C(=O)Nc4cc(C)ncn4)cc3c2OCCC2CCCCN2)c1` (stereo unspecified), the IC50 in test [1] amounted to 167 nM; in test [2], 44 nM; in test [3] it was 2.8 nM.
As to `Cc1cc(C)cc(-c2c(O)nc3cc(Cl)c(C(=O)Nc4nnc(C)s4)cc3c2OCCC2CCCCN2)c1` (stereo unspecified), the IC50 is greater than 1280 nM in test [1] and 28 nM in test [3].
On to `COc1nccc(NC(=O)c2cc3c(OCCC4CCCCN4)c(-c4cc(C)cc(C)c4)c(O)nc3cc2Cl)n1` (stereo unspecified), for which the IC50 was 133 nM in test [2] and 9 nM in test [3].
With `Cc1cc(C)cc(-c2c(O)nc3cc(Cl)c(C(=O)Nc4ccncn4)cc3c2OCCC2CCCCN2)c1` (stereo unspecified), the values for the IC50 in test [1], in test [2] and in test [3] were 240 nM, 8.3 nM and 3.2 nM, respectively.
`CCn1nccc1NC(=O)c1cc2c(OCCC3CCCCN3)c(-c3cc(C)cc(C)c3)c(O)nc2cc1Cl` (stereo unspecified): the IC50 in test [2] was 977 nM; in test [3] it was 860 nM.
With `Cc1cc(C)cc(-c2c(O)nc3cc(Cl)c(C(=O)Nc4ccncn4)cc3c2OCC[C@@H]2CCCCN2)c1`, the IC50 in test [1] was found to be 96.5 nM; in test [2], 5 nM; in test [3], 0.9 nM.
Turning to `Cc1cc(C)cc(-c2c(O)nc3cc(Cl)c(C(=O)Nc4ccc(N(C)C)cc4)cc3c2OCCC2CCCCN2)c1` (stereo unspecified), the IC50 in test [2] was found to be 360 nM; in test [3], 10.9 nM.
Turning to `Cc1cc(C)cc(-c2c(O)nc3cc(Cl)c(C(=O)Nc4ccncc4)cc3c2OCCC2CCCCN2)c1` (stereo unspecified), the results for the IC50 in test [1], in test [2] and in test [3] were 1090 nM, 10.6 nM and 3.8 nM, respectively.
In the case of `CCN(CC)C(=O)c1cc2c(OCCC3CCCCN3)c(-c3cc(C)cc(C)c3)c(O)nc2cc1Cl` (stereo unspecified), in test [1], the IC50 was greater than 1280 nM.
Take `Cc1cc(C)cc(-c2c(O)nc3cc(Cl)c(C(=O)Nc4cnsn4)cc3c2OCCC2CCCCN2)c1` (stereo unspecified): the IC50 was 292 nM in test [1], 6.4 nM in test [2] and 2 nM in test [3].
As for `Cc1cc(C)cc(-c2c(O)nc3cc(Cl)c(C(=O)Nc4ccnc(C5CC5)n4)cc3c2OCCC2CCCCN2)c1` (stereo unspecified), the IC50 in test [2] is 250 nM; in test [3] it was 15 nM.
As for `Cc1cc(C)cc(-c2c(O)nc3cc(Cl)c(C(=O)Nc4cc(C)on4)cc3c2OCCC2CCCCN2)c1` (stereo unspecified), the IC50 in test [1] came to 513 nM; in test [2] it was 77.5 nM; in test [3], 2.3 nM.
Consider `Cc1cc(C)cc(-c2c(O)nc3cc(Cl)c(C(=O)Nc4cnsn4)cc3c2OCC[C@@H]2CCCCN2)c1`, for which the values for the IC50 in test [1], in test [2] and in test [3] were 23.9 nM, 5.9 nM and 0.8 nM, respectively.
On to `Cc1cc(C)cc(-c2c(O)nc3cc(Cl)c(C(=O)Nc4cc(C)no4)cc3c2OCCC2CCCCN2)c1` (stereo unspecified), for which the results for the IC50 in test [1] and in test [3] were greater than 1280 nM and 23 nM, respectively.
For `Cc1cc(C)cc(-c2c(O)nc3cc(Cl)c(C(=O)Nc4ccnc(C)n4)cc3c2OCCC2CCCCN2)c1` (stereo unspecified), the results for the IC50 in test [1], in test [2] and in test [3] were 87.2 nM, 33.3 nM and 1.8 nM, respectively.
Take `Cc1cc(C)cc(-c2c(O)nc3cc(Cl)c(C(=O)Nc4nc[nH]n4)cc3c2OCCC2CCCCN2)c1` (stereo unspecified): the IC50 in test [1] was greater than 1280 nM; in test [2], 775 nM; in test [3], 320 nM.
